This note sets out measurements from patent US11566007B2, “Ras inhibitors” (Revolution Medicines, Inc., priority 2019, dated 2023).

Some results are limits rather than exact numbers.

The target of one test is KRAS G12V (Homo sapiens (Human), UniProt P01116+P62937, G12V). Description: Ras-Raf (BRAF RBD) disruption / FRET / MOA assay, KRAS G12V. The test is classed as biochemical. As to conditions: read-out: IC50* KRAS G12V FRET data. The method in brief: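 Compound-driven ternary complex of nucleotide-loaded Ras with cyclophilin A, disrupting BRAF RBD binding. 10-point 3-fold dilution from 30 μM final, 3 h at 25° C, then anti-His Eu-W1024 (10 nM) and anti-GST allophycocyanin (50 nM) for 1.5 h. IC50 from TR-FRET ratio decrease versus DMSO.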

In test [1] the test system is NCI-H358 cells (K-Ras G12C). Description: Potency assay: pERK in NCI-H358 cells. The test is classed as cell-based, human. To be noted: Homo sapiens, NCI-H358; H358 KRAS G12C; read-out: pERK EC50. The gist of the method: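 4 h cpd, 37 °C; 10-pt 3-fold series, 10 mM DMSO top stock, duplicates. Readout pERK: AlphaLISA SureFire Ultra or In-Cell Western (IR-800CW secondary, DRAQ5 DNA stain). IC50, 4-PL fit vs log conc.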

The next test has as its system NCI-H358 (K-Ras G12C). Description: CellTiter-Glo cell viability assay, NCI-H358. To be noted: Homo sapiens, NCI-H358, 120 h, NCI-H358, 5-day treatment; class symbols; read-out: Additional H358 Cell Viability assay data (K-Ras G12C, IC50). The test is classed as cell-based, human. The gist of the method:
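Viability measured by CellTiter-Glo luminescence on day 5 following direct addition of compound to plated cells. Values expressed as percent of mean DMSO signal; curves fitted with a four-parameter logistic model.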
Background: Cellular ATP, detected with luciferase, serves as a proxy for viable cell number.

The target of the next test is KRAS Q61H (Homo sapiens (Human), UniProt P01116+P62937, Q61H). Kind of test: Ras-Raf (BRAF RBD) disruption / FRET / MOA assay, KRAS Q61H. It is filed as biochemical. As to conditions: Ras-Raf disruption/FRET/MOA assay; class symbols; read-out: KRAS Q61H FRET data IC50. The gist of the method: (§1)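 Compounds (30 μM top final, 10-point 3-fold dilutions) incubated 3 h at 25° C with nucleotide-loaded Ras, cyclophilin A and BRAF RBD. Detection with 10 nM anti-His Eu-W1024 and 50 nM anti-GST allophycocyanin over another 1.5 h. Lowered TR-FRET ratio relative to DMSO wells gives IC50.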

Another test concerns the target NRAS Q61K (Homo sapiens (Human), UniProt P01111+P62937, Q61K). Description: Ras-Raf (BRAF RBD) disruption / FRET / MOA assay, NRAS Q61K. As to conditions: NRAS Q61K; Ras-Raf disruption/FRET/MOA assay; read-out: IC50* NRAS Q61K FRET data. The test is classed as biochemical. The gist of the method: as §1

NRAS Q61K, sequence (P01111 whole entry Q61K): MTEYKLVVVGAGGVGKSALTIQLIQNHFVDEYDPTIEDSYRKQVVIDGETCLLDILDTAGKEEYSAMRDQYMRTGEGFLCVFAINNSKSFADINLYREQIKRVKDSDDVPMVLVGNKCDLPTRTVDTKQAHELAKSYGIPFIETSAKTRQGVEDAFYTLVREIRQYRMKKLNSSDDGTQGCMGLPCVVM
NRAS Q61K, sequence (P62937 whole entry): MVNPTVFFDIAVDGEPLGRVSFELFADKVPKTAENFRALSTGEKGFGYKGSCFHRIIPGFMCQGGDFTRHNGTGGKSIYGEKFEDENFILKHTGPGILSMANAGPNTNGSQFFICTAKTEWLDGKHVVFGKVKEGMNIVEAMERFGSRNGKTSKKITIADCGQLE
KRAS Q61H, sequence (P01116-2 other isoform, or with tags, fused parts or gaps Q61H): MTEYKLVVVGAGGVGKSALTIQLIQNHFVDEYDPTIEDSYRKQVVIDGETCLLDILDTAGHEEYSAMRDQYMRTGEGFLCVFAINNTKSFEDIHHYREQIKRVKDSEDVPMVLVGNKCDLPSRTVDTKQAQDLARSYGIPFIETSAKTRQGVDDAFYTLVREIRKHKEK
KRAS Q61H, sequence (P62937 whole entry): as the sequence (P62937 whole entry) above
KRAS G12V, sequence (P01116-2 other isoform, or with tags, fused parts or gaps G12V): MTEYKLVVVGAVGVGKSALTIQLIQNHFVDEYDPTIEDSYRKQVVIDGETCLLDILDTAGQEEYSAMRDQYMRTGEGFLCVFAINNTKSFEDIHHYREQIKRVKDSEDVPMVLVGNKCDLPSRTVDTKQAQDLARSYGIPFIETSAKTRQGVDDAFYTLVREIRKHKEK
KRAS G12V, sequence (P62937 whole entry): as the sequence (P62937 whole entry) above

As to `CCn1c(-c2cccnc2[C@H](C)OC)c2c3cc(ccc31)-c1cccc(c1)C[C@H](NC(=O)[C@H](C(C)C)N1CC[C@]3(CCN(C(=O)C#C[C@H]4COCCN4C4COC4)C3)C1=O)C(=O)N1CCC[C@H](N1)C(=O)OCC(C)(C)C2` (atropisomer, axis not shown) [Example A568], the IC50 (as a rule, the concentration that inhibits the measured activity by half) at KRAS G12V is > 10000 nM; with NCI-H358 (K-Ras G12C) it was 10 to 100 nM; at KRAS Q61H, 1000 to 10000 nM; on NRAS Q61K, > 10000 nM. Moreover, the EC50 (commonly the midpoint of the concentration-response curve) in test [1] is < 5000 nM.
Consider `CCn1c(-c2cccnc2[C@H](C)OC)c2c3cc(ccc31)-c1csc(n1)C[C@H](NC(=O)[C@H](C(C)C)N(C)C(=O)N1C[C@@H]3CN(C(=O)C#CC(C)(C)N(C)C)CC[C@@H]31)C(=O)N1CCC[C@H](N1)C(=O)OCC(C)(C)C2` (atropisomer, axis not shown) [Example A625], for which the IC50 at KRAS G12V lay in the range of 100 to 1000 nM; in the test with NCI-H358 (K-Ras G12C), 10 to 100 nM; on KRAS Q61H, 100 to 1000 nM; on NRAS Q61K it was 100 to 1000 nM. The 50% effective concentration (EC50) in test [1] was < 5000 nM.
In the case of `CCn1c(-c2cccnc2[C@H](C)OC)c2c3cc(ccc31)-c1cccc(c1)C[C@H](NC(=O)[C@@H](COC1CN(C(=O)C#CC(C)(C)N(C)C3CC3)C1)C(C)C)C(=O)N1CCC[C@H](N1)C(=O)OCC(C)(C)C2` (atropisomer, axis not shown) [Example A613], the IC50 at KRAS G12V is > 10000 nM; in the test on NCI-H358 (K-Ras G12C), 10 to 100 nM; at KRAS Q61H it was > 10000 nM; at NRAS Q61K, > 10000 nM. In addition, the half-maximal effective concentration (EC50) in test [1] is < 5000 nM.
For the compound `C=CC(=O)N(C)CCN1CCN(C(=O)N(C)[C@H](C(=O)N[C@H]2Cc3cccc(c3)-c3ccc4c(c3)c(c(-c3cccnc3[C@H](C)OC)n4CC)CC(C)(C)COC(=O)[C@@H]3CCCN(N3)C2=O)C(C)C)C[C@H]1C` (atropisomer, axis not shown) [Example A553], the IC50 at KRAS G12V lay within 1000 to 10000 nM; in the test on NCI-H358 (K-Ras G12C), 100 to 1000 nM; on KRAS Q61H, 100 to 1000 nM; at NRAS Q61K it was 1000 to 10000 nM. Also, in test [1], the concentration giving a half-maximal response (EC50) is < 5000 nM.
Regarding `C=CC(=O)N1CC[C@H](C(=O)N(C)[C@H](C(=O)N[C@H]2Cc3csc(n3)-c3ccc4c(c3)c(c(-c3cccnc3[C@H](C)OC)n4CC)CC(C)(C)COC(=O)[C@@H]3CCCN(N3)C2=O)C(C)C)C1` (atropisomer, axis not shown) [Example A330], the IC50 at KRAS G12V lay in the range of 1000 to 10000 nM; in the test on NCI-H358 (K-Ras G12C) it was 10 to 100 nM; on KRAS Q61H, 100 to 1000 nM; on NRAS Q61K it was 100 to 1000 nM. In addition, the EC50 in test [1] was < 5000 nM.
As to `CCn1c(-c2cccnc2[C@H](C)OC)c2c3cc(ccc31)-c1csc(n1)C[C@H](NC(=O)[C@H](C(C)C)N(C)C(=O)N1CCC13CN(C(=O)/C=C/CN1CCOCC1)C3)C(=O)N1CCC[C@H](N1)C(=O)OCC(C)(C)C2` (atropisomer, axis not shown) [Example A611], the IC50 on KRAS G12V was 100 to 1000 nM; with NCI-H358 (K-Ras G12C), 10 to 100 nM; on KRAS Q61H, 10 to 100 nM; on NRAS Q61K, 10 to 100 nM. In addition, in test [1], the EC50 is < 5000 nM.
For the compound `C=CC(=O)N1CC[C@H](C(=O)N(C)[C@H](C(=O)N[C@H]2CN3CCC=C(C3)c3ccc4c(c3)c(c(-c3cccnc3[C@H](C)OC)n4CC)CC(C)(C)COC(=O)[C@@H]3CCCN(N3)C2=O)C(C)C)C1` (atropisomer, axis not shown) [Example A716, (3S)-1-acryloyl-N-((2S)-1-(((6^3S,4S)-1^1-ethyl-1^2-(2-((S)-1-methoxyethyl)pyridin-3-yl)-10,10-dimethyl-5,7-dioxo-2^1,2^2,2^3,2^6,6^1,6^2,6^3,6^4,6^5,6^6-decahydro-1^1H-8-oxa-1(5,3)-indola-6(1,3)-pyridazina-2(5,1)-pyridinacycloundecaphane-4-yl)amino)-3-methyl-1-oxobutan-2-yl)-N-methylpyrrolidine-3-carboxamide], the half-inhibitory concentration (IC50) at KRAS G12V was 1000 to 10000 nM; in the test with NCI-H358 (K-Ras G12C), 10 to 100 nM; on KRAS Q61H it was 1000 to 10000 nM; on NRAS Q61K it was > 10000 nM. For the same compound, the EC50 in test [1] was < 5000 nM.
Regarding `C=CC(=O)N1CC[C@H](C(=O)N(C)[C@H](C(=O)N[C@H]2Cc3cc(O)cc(c3)-c3ccc4c(c3)c(c(-c3c(C)cccc3C)n4CC)CC(C)(C)COC(=O)[C@@H]3CCCN(N3)C2=O)C(C)C)C1` [Example A226], the half-inhibitory concentration (IC50) at KRAS G12V was 1000 to 10000 nM; in the test with NCI-H358 (K-Ras G12C), 100 to 1000 nM; on KRAS Q61H, 1000 to 10000 nM; at NRAS Q61K, > 10000 nM. In addition, the EC50 in test [1] is < 5000 nM.
Consider `C=CC(=O)N1CCO[C@H]2CN(C(=O)N(C)[C@H](C(=O)N[C@H]3Cc4nc(n(C)n4)-c4ccc5c(c4)c(c(-c4cccnc4[C@H](C)OC)n5CC(F)(F)F)CC(C)(C)COC(=O)[C@@H]4CCCN(N4)C3=O)C(C)C)C[C@H]21` (atropisomer, axis not shown) [Example A575], for which the IC50 on KRAS G12V is 1000 to 10000 nM; in the test on NCI-H358 (K-Ras G12C), 10 to 100 nM; on KRAS Q61H, 100 to 1000 nM; on NRAS Q61K it was 100 to 1000 nM. The EC50 in test [1] is < 5000 nM.
For the compound `CCn1c(-c2cccnc2[C@H](C)OC)c2c3cc(ccc31)-c1csc(n1)C[C@H](NC(=O)[C@H](C(C)C)N(C)C(=O)N(C)C1CN(C(=O)/C=C/[C@@H]3CCCN3C)C1)C(=O)N1CCC[C@H](N1)C(=O)OCC(C)(C)C2` (atropisomer, axis not shown) [Example A730], the IC50 was 1000 to 10000 nM at KRAS G12V, 10 to 100 nM in the test on NCI-H358 (K-Ras G12C), 100 to 1000 nM at KRAS Q61H and 100 to 1000 nM at NRAS Q61K. In addition, in test [1], the half-maximal effective concentration (EC50) was < 5000 nM.
For `CC#CC(=O)N1CC(N(C)C(=O)N(C)[C@H](C(=O)N[C@H]2Cc3nc(cs3)-c3ccc4c(c3)c(c(-c3cccnc3[C@H](C)OC)n4CC)CC(C)(C)COC(=O)[C@@H]3CCCN(N3)C2=O)C(C)C)C1` (atropisomer, axis not shown) [Example A731], the half-inhibitory concentration (IC50) at KRAS G12V was 1000 to 10000 nM; with NCI-H358 (K-Ras G12C), 100 to 1000 nM; on KRAS Q61H, 100 to 1000 nM; on NRAS Q61K, 100 to 1000 nM. The 50% effective concentration (EC50) in test [1] is < 5000 nM.
In the case of `C=CS(=O)(=O)N1CCC(C(=O)N(C)[C@H](C(=O)N[C@H]2Cc3nc(cs3)-c3ccc4c(c3)c(c(-c3cncnc3)n4CC)CC(C)(C)COC(=O)[C@@H]3CCCN(N3)C2=O)C(C)C)C1` (single isomer, unassigned) [Example A170], the 50% inhibitory concentration (IC50) on KRAS G12V is > 10000 nM; in the test on NCI-H358 (K-Ras G12C), 100 to 1000 nM; on KRAS Q61H, > 10000 nM; on NRAS Q61K it was > 10000 nM. Besides, the concentration giving a half-maximal response (EC50) in test [1] was < 5000 nM.
As for `CCn1c(-c2cccnc2[C@H](C)OC)c2c3cc(ccc31)N1CCC[C@@H](C[C@H](NC(=O)[C@H](C(C)C)N(C)C(=O)[C@H]3CCN(C(=O)C#CC(C)(C)N4CCC4)C3)C(=O)N3CCC[C@H](N3)C(=O)OCC(C)(C)C2)C1` (atropisomer, axis not shown) [Example A617], the half-inhibitory concentration (IC50) on KRAS G12V was > 10000 nM; in the test with NCI-H358 (K-Ras G12C) it was 10 to 100 nM; on KRAS Q61H, > 10000 nM; at NRAS Q61K it was > 10000 nM. For the same compound, the half-maximal effective concentration (EC50) in test [1] was < 5000 nM.
Regarding `C=CC(=O)N1CC[C@H](C(=O)N(C)[C@H](C(=O)N[C@H]2Cc3nc(ns3)-c3ccc4c(c3)c(c(-c3cccnc3[C@H](C)OC)n4CC)CC(C)(C)COC(=O)[C@@H]3CCCN(N3)C2=O)C(C)C)C1` (atropisomer, axis not shown) [Example A202], the half-maximal inhibitory concentration (IC50) was > 10000 nM on KRAS G12V, 10 to 100 nM in the test on NCI-H358 (K-Ras G12C), 1000 to 10000 nM at KRAS Q61H and 1000 to 10000 nM at NRAS Q61K. In test [1], the half-maximal effective concentration (EC50) was < 5000 nM.
